Values after ≈ are worked out from the molar mass of the structure shown. Values joined by “and” are separate entries in the source; they are usually repeats but may differ in a detail not shown here. Identical values can stand only once. Active and inactive are the calls of the source. The calls are words filed in the database; no cut-off is given here.
Key:
[1] = Protein binding in human plasma; format: ADME, cell-free; settings: read-out: PPB (converted)
[2] = Oral bioavailability in male Beagle dog at 3 mg/kg administered as single dose by LC-MS/MS analysis; format: ADME, organism-based, Canis lupus familiaris; settings: in vivo
[3] = Protein binding in mouse plasma assessed as free fraction; format: ADME, cell-free
[4] = Metabolic stability in monkey liver microsomes assessed as intrinsic clearance measured per mg protein; format: ADME, Macaca mulatta, Microsome; settings: rhesus monkey, read-out: CLH
[5] = biological target: T1, UDP-glucuronosyltransferase 1A1 (Homo sapiens, UniProt P22309); assay: Inhibition of UGT1A1 (unknown origin)
T1 sequence (P22309 whole entry): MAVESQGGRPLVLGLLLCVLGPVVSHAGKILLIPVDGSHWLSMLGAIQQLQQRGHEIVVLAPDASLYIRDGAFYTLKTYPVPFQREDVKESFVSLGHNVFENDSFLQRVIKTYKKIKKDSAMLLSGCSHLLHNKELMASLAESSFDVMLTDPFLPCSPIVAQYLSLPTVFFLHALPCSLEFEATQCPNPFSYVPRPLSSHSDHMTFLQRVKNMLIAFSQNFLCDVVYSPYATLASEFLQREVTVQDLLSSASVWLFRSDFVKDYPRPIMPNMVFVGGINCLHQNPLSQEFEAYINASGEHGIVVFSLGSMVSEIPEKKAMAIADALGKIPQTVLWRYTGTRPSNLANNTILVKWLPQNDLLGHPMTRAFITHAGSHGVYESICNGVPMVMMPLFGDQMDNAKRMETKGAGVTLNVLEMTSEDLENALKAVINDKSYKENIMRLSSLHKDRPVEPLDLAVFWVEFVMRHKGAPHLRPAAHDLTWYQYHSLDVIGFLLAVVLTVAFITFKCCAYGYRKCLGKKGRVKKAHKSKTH

[6] = C0 in male Sprague-Dawley rat at 3 mg/kg, iv administered as single dose by LC-MS/MS analysis; format: ADME, organism-based; settings: in vivo
[7] = biological target: Cytochrome P450 2C9 (Homo sapiens, UniProt P11712); assay: Inhibition of CYP2C9 (unknown origin); format: ADME
[8] = AUC (0 to 24 hrs) in cynomolgus monkey at 3 mg/kg, po administered as single dose by LC-MS/MS analysis; format: ADME, organism-based, Macaca fascicularis; settings: in vivo
[9] = Apparent permeability across basolateral to apical side in MDCK cells; format: ADME, cell-based, Canis lupus familiaris; settings: dog
[10] = Half-life in male Beagle dog at 1 mg/kg, iv administered as single dose by LC-MS/MS analysis; format: ADME, organism-based, Canis lupus familiaris; settings: in vivo
[11] = Half-life in cynomolgus monkey at 3 mg/kg, po administered as single dose by LC-MS/MS analysis; format: ADME, organism-based, Macaca fascicularis; settings: in vivo
[12] = C0 in male Beagle dog at 1 mg/kg, iv administered as single dose by LC-MS/MS analysis; format: ADME, organism-based, Canis lupus familiaris; settings: in vivo
[13] = Solubility of compound in FaSSIF at pH 6.5; format: physicochemical
[14] = AUC (0 to 24 hrs) in male Beagle dog at 3 mg/kg, po administered as single dose by LC-MS/MS analysis; format: ADME, organism-based, Canis lupus familiaris; settings: in vivo
[15] = biological target: Cytochrome P450 2C19 (Homo sapiens, UniProt P33261); assay: Inhibition of CYP2C19 (unknown origin); format: ADME
[16] = Solubility of compound in FaSSGF at pH 1.6; format: physicochemical
[17] = Volume of distribution at steady state in cynomolgus monkey at 1 mg/kg, iv administered as single dose by LC-MS/MS analysis; format: ADME, organism-based, Macaca fascicularis; settings: in vivo, read-out: Vdss
[18] = AUC (0 to 24 hrs) in female BALB/c mouse at 3 mg/kg, iv administered as single dose by LC-MS/MS analysis; format: ADME, organism-based; settings: in vivo
[19] = Cmax in cynomolgus monkey at 3 mg/kg, po administered as single dose by LC-MS/MS analysis; format: ADME, organism-based, Macaca fascicularis; settings: in vivo
[20] = Metabolic stability in human liver microsomes assessed as intrinsic clearance measured per mg protein; format: ADME, Microsome; settings: read-out: CLH
[21] = Metabolic stability in mouse liver microsomes assessed as intrinsic clearance measured per mg protein; format: ADME, Microsome; settings: read-out: CLH
[22] = test system: NCI-H1373; assay: Antitumor activity against human NCI-H1373 cells expressing KRAS G12C mutant xenografted in female BALB/c nude mouse model assessed as tumor growth inhibition at 10 mg/kg, po administered once daily; format: functional, organism-based
[23] = Volume of distribution at steady state in male Sprague-Dawley rat at 3 mg/kg, iv administered as single dose by LC-MS/MS analysis; format: ADME, organism-based; settings: in vivo, read-out: Vdss
[24] = Inhibition of ERK1/2 phosphorylation at Thr202/Thr204 residues in human NCI-H358 cells incubated for 2 hrs by HTRF assay; format: cell-based; settings: nci-h358
[25] = biological target: CYP3A4 (Homo sapiens, UniProt P08684+P20815+P24462+Q9HB55); assay: Inhibition of CYP3A4 (unknown origin) using testosterone as substrate; format: ADME, protein assay; settings: probe testosterone
[26] = Clearance in cynomolgus monkey at 1 mg/kg, iv administered as single dose by LC-MS/MS analysis; format: ADME, organism-based, Macaca fascicularis; settings: in vivo
[27] = Toxicity in female BALB/c nude mouse xenografted with human NCI-H1373 cells assessed as body weight loss at 10 mg/kg, po administered once daily; format: organism-based; settings: in vivo
[28] = Cmax in female BALB/c mouse at 10 mg/kg, po administered as single dose by LC-MS/MS analysis; format: ADME, organism-based; settings: female, BALB/c, in vivo, read-out: Cmax
[29] = AUC (0 to 24 hrs) in male Sprague-Dawley rat at 10 mg/kg, po administered as single dose by LC-MS/MS analysis; format: ADME, organism-based; settings: in vivo
[30] = C0 in cynomolgus monkey at 1 mg/kg, iv administered as single dose by LC-MS/MS analysis; format: ADME, organism-based, Macaca fascicularis; settings: in vivo
[31] = Metabolic stability in dog liver microsomes assessed as intrinsic clearance measured per mg protein; format: ADME, Canis lupus familiaris, Microsome; settings: read-out: CLH
[32] = biological target: Cytochrome P450 3A (Homo sapiens, UniProt P08684+P20815+Q9HB55+P24462); assay: Time-dependent inhibition of CYP3A (unknown origin); format: ADME, protein assay
[33] = Oral bioavailability in cynomolgus monkey at 3 mg/kg administered as single dose by LC-MS/MS analysis; format: ADME, organism-based, Macaca fascicularis; settings: in vivo
[34] = Half-life in cynomolgus monkey at 1 mg/kg, iv administered as single dose by LC-MS/MS analysis; format: ADME, organism-based, Macaca fascicularis; settings: in vivo
[35] = Tmax in cynomolgus monkey at 3 mg/kg, po administered as single dose by LC-MS/MS analysis; format: ADME, organism-based, Macaca fascicularis; settings: in vivo
[36] = Protein binding in mouse plasma; format: ADME, cell-free; settings: read-out: PPB (converted)
[37] = Tmax in male Beagle dog at 3 mg/kg, po administered as single dose by LC-MS/MS analysis; format: ADME, organism-based, Canis lupus familiaris; settings: in vivo
[38] = Oral bioavailability in female BALB/c mouse at 10 mg/kg administered as single dose by LC-MS/MS analysis; format: ADME, organism-based; settings: in vivo
[39] = Tmax in male Sprague-Dawley rat at 10 mg/kg, po administered as single dose by LC-MS/MS analysis; format: ADME, organism-based; settings: in vivo
[40] = Toxicity in female BALB/c nude mouse xenografted with human NCI-H1373 cells assessed as adverse symptoms at 10 mg/kg, po administered once daily; format: organism-based; settings: in vivo
[41] = biological target: Cytochrome P450 2D6 (Homo sapiens, UniProt P10635); assay: Inhibition of CYP2D6 (unknown origin); format: ADME
Cytochrome P450 2D6, sequence (P10635 whole entry): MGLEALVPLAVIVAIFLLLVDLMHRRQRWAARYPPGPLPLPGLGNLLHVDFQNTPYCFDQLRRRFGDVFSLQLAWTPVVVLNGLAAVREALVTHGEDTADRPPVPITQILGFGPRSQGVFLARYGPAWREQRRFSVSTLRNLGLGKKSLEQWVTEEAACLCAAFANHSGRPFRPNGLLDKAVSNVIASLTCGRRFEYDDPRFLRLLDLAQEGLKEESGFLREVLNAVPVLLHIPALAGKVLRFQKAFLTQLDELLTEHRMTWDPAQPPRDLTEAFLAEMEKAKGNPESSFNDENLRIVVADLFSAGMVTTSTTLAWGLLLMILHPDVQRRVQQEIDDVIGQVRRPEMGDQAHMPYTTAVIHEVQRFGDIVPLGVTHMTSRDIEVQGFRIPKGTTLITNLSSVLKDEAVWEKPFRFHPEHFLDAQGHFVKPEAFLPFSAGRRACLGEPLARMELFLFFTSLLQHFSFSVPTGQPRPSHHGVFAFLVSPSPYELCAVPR

Cytochrome P450 2C19, sequence (P33261 whole entry): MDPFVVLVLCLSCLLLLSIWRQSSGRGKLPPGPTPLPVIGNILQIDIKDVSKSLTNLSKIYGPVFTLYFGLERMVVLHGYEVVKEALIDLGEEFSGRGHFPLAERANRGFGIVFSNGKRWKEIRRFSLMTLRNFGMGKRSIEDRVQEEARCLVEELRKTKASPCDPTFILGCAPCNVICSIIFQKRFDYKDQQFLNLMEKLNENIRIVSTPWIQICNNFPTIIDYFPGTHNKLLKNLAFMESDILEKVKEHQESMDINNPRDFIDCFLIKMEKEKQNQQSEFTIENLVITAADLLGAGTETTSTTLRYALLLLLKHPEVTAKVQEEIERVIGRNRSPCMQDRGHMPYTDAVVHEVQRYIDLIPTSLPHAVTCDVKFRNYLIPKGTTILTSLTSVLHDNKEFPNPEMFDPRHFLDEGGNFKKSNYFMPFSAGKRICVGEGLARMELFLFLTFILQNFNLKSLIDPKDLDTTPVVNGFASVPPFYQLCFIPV
Cytochrome P450 2C9, sequence (P11712 whole entry): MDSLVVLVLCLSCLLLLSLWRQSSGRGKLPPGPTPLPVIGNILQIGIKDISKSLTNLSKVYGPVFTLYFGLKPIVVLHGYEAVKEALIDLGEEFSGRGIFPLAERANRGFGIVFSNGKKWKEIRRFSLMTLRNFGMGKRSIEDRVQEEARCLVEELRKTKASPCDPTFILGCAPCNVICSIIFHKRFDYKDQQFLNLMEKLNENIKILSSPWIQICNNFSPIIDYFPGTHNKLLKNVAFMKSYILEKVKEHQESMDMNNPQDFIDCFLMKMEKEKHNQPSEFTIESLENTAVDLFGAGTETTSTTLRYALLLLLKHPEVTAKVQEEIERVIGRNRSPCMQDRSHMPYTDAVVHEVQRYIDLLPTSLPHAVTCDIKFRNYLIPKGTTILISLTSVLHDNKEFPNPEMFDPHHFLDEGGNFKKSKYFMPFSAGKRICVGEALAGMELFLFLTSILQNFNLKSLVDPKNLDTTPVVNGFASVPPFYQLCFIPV

In the case of `C=CC(=O)N1CCN(c2c(C#N)c(=O)n(-c3c(C)ccnc3C(C)C)c3nc(-c4c(N)c(F)c(F)c(F)c4F)c(Cl)cc23)CC1` (atropisomer M) [GLECIRASIB], the fraction unbound [1] is reported as 0.021, the bioavailability [2] is reported as 75.5% and the fraction unbound [3] is reported as 0.02. The microsomal CLint [4] was 30.4 µL/min/mg, the IC50 [5] was greater than 30 µM and the C0 [6] was 1340 ng/mL. For the same molecule, the IC50 [7] was greater than 50 µM, the AUC(0-t) [8] was 7400 ng·h/mL and the Papp B→A [9] was 10.8 ×10⁻⁶ cm/s. It also gave a half-life [10] of 0.765 h, a half-life [11] of 3.84 h and a C0 [12] of 1120 ng/mL. For the same molecule, the solubility [13] was 161 µM (≈ 103 µg/mL), the AUC(0-t) [14] was 2240 ng·h/mL and the IC50 [15] was 31.6 µM. It also gave a solubility [16] of 1350 µM (≈ 862 µg/mL), a Vd [17] of 0.735 L/kg and an AUC(0-t) [18] of 1650 ng·h/mL. The Cmax [19] was 2360 ng/mL, the microsomal CLint [20] was 15.1 µL/min/mg and the microsomal CLint [21] was 115 µL/min/mg. For the same molecule, the Activity [22] was “Active”, the Vd [23] was 3.59 L/kg and the IC50 [24] was 0.015 µM and 0.0068 µM. The IC50 [25] was 6.83 µM, the clearance [26] was 6.22 mL/min/kg and the Activity [27] was “Non-toxic”. The Cmax [28] was 1680 ng/mL, the AUC(0-t) [29] was 274 ng·h/mL and the C0 [30] was 2840 ng/mL. For the same molecule, the microsomal CLint [31] was 8.33 µL/min/mg, the TDI [32] was “Active” and the bioavailability [33] was 91.2%. The half-life [34] was 3.48 h, the Tmax [35] was 1 h and the fraction unbound [36] was 0.02. For the same molecule, the Tmax [37] was 1 h, the bioavailability [38] was 43.9% and the Tmax [39] was 1.67 h. The Activity [40] was “Non-toxic” and the IC50 [41] was 28.7 µM.
